The subject of assay [1] is pancreatic islets from UCP2 knockout mice. Put plainly: Insulin secretion in isolated pancreatic islets from UCP2 knockout mice. The assay is classed as cell-based. The following applies: 5.5 mM glucose, 50 nM, 0.5 μM and 5 μM genipin, 37° C. for 60 min, FIG. 4 / FIG. 11B. As for the experimental part:
As used or herein, pancreatic islets from wildtype and UCP2 knockout mice were isolated according to a method used for rats (Cawthorn and Chan, Mol. Cell. Endocrinol. 1991, 75:197-204, the entire teachings of which are incorporated herein by reference), except that the total exposure to type XI collagenase (Worthington Biochemical Co., NJ) was 30 min. and the Ficoll gradient was altered to layers of 25%, 23%, 21%, and 11%. Islets were harvested from the 11%-21% interface.
Islets were cultured in RPMI medium containing 11.0 mM glucose and supplemented with 1% penicillin-streptomycin. 7.5% fetal bovine serum (all from Gibco/BRL, Burlington, ON), and 10 mM Hepes (Sigma). After culturing for 20-24 hr, the islets were transferred to microcentrifuge tubes, pelleted (800 g for 5 min), and the medium aspirated and replaced with 1.0 mL DME medium containing 1% gelatin and 5.5 mM glucose with no genipin (control), 50 nM genipin, 0.5 μM genipin, and 5 μM genipin. For insulin secretion studies, the three islets were incubated per tube. After incubation at 37° C. for 60 min., the islets were centrifuged. The supernatant was collected and stored at −80° C., and then later assayed for insulin using Rat Insulin ELISA Kit (Cat. No. INSKR020, Crystal Chem., Inc., Chicago, Ill.).
FIGS. 11B and 11C show their effects on insulin secretion. Pancreatic islets were isolated from WT or UCP2 knockout (KO) mice. […]

Assay [2] deals with high fat diet-fed wildtype mice. Briefly: Blood glucose and insulin after genipin injection in high fat diet-fed wildtype mice. The following applies: high fat diet 24 weeks, 20 hours fasting, 300 μg genipin injected, thirty minutes after injection. Format: in vivo. As for the experimental part: Wildtype and UCP2 knockout mice were placed on a high fat diet obtained from Research Diets Inc., New Brunswick, N.J. (cat. no. D12331, HFD). The fat source was coconut oil and comprised 58% of the total calories. The mice remained on the high fat diet for 24 weeks. After the 24 weeks, both the wildtype and the UCP2 knockout mice were obese (about 50-60 g). After 20 hours of fasting, the blood glucose and insulin levels of the mice were measured, then the mice were injected with 300 μg of genipin. Thirty minutes after injection the blood glucose and insulin levels of the mice were measured again. Blood glucose levels were assessed using a glucometer (One touch, Lifescan, Milpitas, Calif.). Serum insulin concentrations were assessed using mouse insulin as a standard (Rat Insulin ELISA Kit. cat. #INSKR020 Crystal Chem. Inc., Chicago, Ill.). […] A comparison of the effect of genipin on the blood glucose levels and insulin levels in wildtype and UCP2 knockout mice can be seen in FIGS. 7 and 10, respectively.

Assay [3] relates to WT mice on chow diet, WT mice on high fat diet, ob/ob mice. Briefly: Serum insulin in vivo after genipin injection in WT (chow, HFD) and ob/ob mice. The following applies: WT chow (6 hours fasting, 10 mg/kg), WT HFD (20 hours fasting, 10 mg/kg), ob/ob (20 hours fasting, 20 mg/kg); injected; FIGS. 13A-C. As for the experimental part: UCP2-deficient mice have increased serum insulin levels. Genipin inhibits UCP2 activity, and thus should stimulate insulin secretion acutely in vivo. In the present study, the effect of genipin on insulin secretion in vivo was assessed. WT and UCP2 KO mice were fed a chow diet (FIG. 13A), or placed on a high fat diet (HFD) (FIG. 13B) (#D12331, obtained from Research Diets Inc., New Brunswick, N.J.). The fat source was coconut oil and comprised 58% of the total calories. The mice remained on the HFD for 24 weeks. Both WT and KO mice were obese (50-60 g). ob/ob mice (FIG. 13C) were obtained from The Jackson Laboratory. After 6 hours (FIG. 13A) or 20 hours (FIGS. 13B and 13C) of fasting, genipin (10 mg/kg (FIGS. 13A and 13B), or 20 mg/kg (FIG. 13C)) was injected into the mice. Serum insulin levels were measured before and after administration of genipin as indicated.

Entries after “also recorded” stand apart in the source; their conditions may differ.

As to `COC(=O)C1=CO[C@@H](O)[C@@H]2C(CO)=CC[C@H]12` [genipin], the insulin secretion result in assay [1] is “does not increase insulin secretion; also recorded: no effect on insulin secretion”. The blood glucose levels result in assay [2] (FIG. 5) was “significantly lowered blood glucose”. Besides, the blood insulin levels result in assay [2] (FIG. 8) is reported as “dramatically increase the blood insulin levels”. In addition, the serum insulin levels entry in assay [3] is recorded as “can increase insulin levels in all three animal models”.
